From the supplement of paper PMC10307832

Tests used:
Experiment in all cases: relative viability (nuclei count vs DMSO), 5 days (fraction); higher = more cells survive
Erlotinib + OSI-027 = compound: C#Cc1cccc(Nc2ncnc3cc(OCCOC)c(OCCOC)cc23)c1 [Erlotinib] + COc1cccc2cc(-c3nc([C@H]4CC[C@H](C(=O)O)CC4)n4ncnc(N)c34)[nH]c12 [OSI-027] (partner 0.5 µM)
Procedure, shortened: (§1)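 Each reported value is a median over duplicate plates. It expresses relative viability: treated-well nuclei count divided by vehicle-well nuclei count. Lung cancer cell lines in 1536-well plates were dosed by pin tool a day after seeding, alone with one drug or with a fixed anchor-drug dose plus five library-drug doses (not always all listed) in √10 steps, and nuclei were counted after 5 days.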

Erlotinib + Crizotinib = compound: C#Cc1cccc(Nc2ncnc3cc(OCCOC)c(OCCOC)cc23)c1 [Erlotinib] + C[C@@H](Oc1cc(-c2cnn(C3CCNCC3)c2)cnc1N)c1c(Cl)ccc(F)c1Cl [Crizotinib] (partner 1 µM)
Procedure, shortened: as §1

Erlotinib + Tozasertib = compound: C#Cc1cccc(Nc2ncnc3cc(OCCOC)c(OCCOC)cc23)c1 [Erlotinib] + Cc1cc(Nc2cc(N3CCN(C)CC3)nc(Sc3ccc(NC(=O)C4CC4)cc3)n2)n[nH]1 [Tozasertib] (partner 0.1 µM)
Procedure, shortened: as §1

Erlotinib + Olaparib = compound: C#Cc1cccc(Nc2ncnc3cc(OCCOC)c(OCCOC)cc23)c1 [Erlotinib] + O=C(c1cc(Cc2n[nH]c(=O)c3ccccc23)ccc1F)N1CCN(C(=O)C2CC2)CC1 [Olaparib] (partner 8 µM)
Procedure, shortened: as §1

AT9283 + Alpelisib = compound: O=C(Nc1c[nH]nc1-c1nc2ccc(CN3CCOCC3)cc2[nH]1)NC1CC1 [AT9283] + Cc1nc(NC(=O)N2CCC[C@H]2C(N)=O)sc1-c1ccnc(C(C)(C)C(F)(F)F)c1 [Alpelisib] (partner 2 µM)
Procedure, shortened: as §1

NCI-H441
relative viability (Erlotinib + OSI-027; first compound 0.02 µM): 0.603 | relative viability (Erlotinib + OSI-027; first compound 0.6325 µM): 0.535 | relative viability (Erlotinib + OSI-027; first compound 2 µM): 0.355 | relative viability (Erlotinib + Crizotinib; first compound 0.02 µM): 0.831 | relative viability (Erlotinib + Crizotinib; first compound 0.2 µM): 0.751 | relative viability (Erlotinib + Crizotinib; first compound 0.6325 µM): 0.772 | relative viability (Erlotinib + Crizotinib; first compound 2 µM): 0.677 | relative viability (Erlotinib + Tozasertib; first compound 0.02 µM): 0.631 | relative viability (Erlotinib + Tozasertib; first compound 0.2 µM): 0.717 | relative viability (Erlotinib + Tozasertib; first compound 0.6325 µM): 0.574 | relative viability (Erlotinib + Tozasertib; first compound 2 µM): 0.473 | relative viability (Erlotinib + Olaparib; first compound 0.02 µM): 0.626 | relative viability (Erlotinib + Olaparib; first compound 0.2 µM): 0.54 | relative viability (Erlotinib + Olaparib; first compound 0.6325 µM): 0.534 | relative viability (Erlotinib + Olaparib; first compound 2 µM): 0.495 | relative viability (AT9283 + Alpelisib; first compound 0.003 µM): 0.717 | relative viability (AT9283 + Alpelisib; first compound 0.03 µM): 0.641 | relative viability (AT9283 + Alpelisib; first compound 0.09487 µM): 0.235 | relative viability (AT9283 + Alpelisib; first compound 0.3 µM): 0.198
